Measurements: PubChem BioAssay AID624376 (Broad Institute, 2012)
Results filed as inconclusive are left out. Active and inactive are the calls of the source. How the calls were made is not given here.

Experiment: LMP1-driven NF-kB reporter inhibition, dose response, cell-based, luciferase reporter, luminescence, dry powder, set 2 (AID 624376)
Conditions: LMP1-induced NF-kappaB luciferase reporter cells, luminescence

SMILES | activity change, negative = inhibition (at 35 µM (top of the series)) | also measured
O=C(Cc1ccccn1)NCC[C@H]1CC[C@@H](NC(=O)Nc2ccc(Cl)cc2)[C@@H](CO)O1 | 0.728% (inactive) | 
COc1ccccc1CNC(=O)C[C@H]1C[C@@H]2c3cc(NC(=O)CN(C)C)ccc3O[C@@H]2[C@@H](CO)O1 | -6.3% (inactive) | 
C[C@@H](NC(=O)C[C@@H]1C=C[C@H](NC(=O)Cc2ccccn2)[C@@H](CO)O1)c1ccccc1 | -7.31% (inactive) | 
C[C@@H]1CN([C@H](C)CO)C(=O)c2c(c3ccccc3n2C)-c2ccccc2CO[C@@H]1CN(C)C(=O)Nc1ccc(F)cc1 | 3.49% (inactive) | 
O=C(C[C@@H]1C[C@@H]2c3cc(NS(=O)(=O)c4ccc(F)cc4)ccc3O[C@@H]2[C@H](CO)O1)NC1CCCCC1 | 7.3% (inactive) | 
C[C@@H](NC(=O)C[C@H]1C[C@@H]2c3cc(NC(=O)c4cccnc4)ccc3O[C@@H]2[C@@H](CO)O1)c1ccccc1 | 6.76% (inactive) | 
C[C@H](CO)N1C[C@H](C)[C@@H](CN(C)Cc2ccc(C(F)(F)F)cc2)Oc2ccc(NC(=O)Cc3ccccc3)cc2CC1=O | 17.6% (inactive) | 
C[C@H](NC(=O)C[C@@H]1C=C[C@H](NC(=O)Cc2ccccn2)[C@@H](CO)O1)c1ccccc1 | 5.95% (inactive) | 
CC(C)(C)[S@@](=O)N1Cc2cc(C(=O)NCCc3ccncc3)nc(-c3cccc(-c4cccnc4)c3)c2[C@H]1CCO | -10.1% (inactive) | 
C[C@H]1CN([C@@H](C)CO)C(=O)Cc2cc(NC(=O)Cc3ccccc3)ccc2O[C@@H]1CN(C)Cc1ccc(C(F)(F)F)cc1 | -3.24% (inactive) | 
C[C@@H]1CN([C@@H](C)CO)C(=O)c2c(c3ccccc3n2C)-c2ccccc2CO[C@@H]1CN(C)C(=O)Nc1ccc(F)cc1 | 6.54% (inactive) | 
COc1cccc(S(=O)(=O)N(C)C[C@@H]2Oc3cc(C4=CCCCC4)ccc3S(=O)(=O)N([C@@H](C)CO)C[C@H]2C)c1 | 4.81% (inactive) | 
C[C@H](NC(=O)C[C@@H]1C=C[C@H](NC(=O)Cc2ccccn2)[C@H](CO)O1)c1ccccc1 |  | activity change, negative = inhibition (at 30 µM (top of the series)): -8.89% (inactive)
Cc1noc(C)c1S(=O)(=O)Nc1ccc2c(c1)C(=O)N([C@H](C)CO)C[C@H](C)[C@@H](CN(C)Cc1ccc(C(F)(F)F)cc1)OCCCC[C@@H](C)O2 | -11.7% (inactive) | 
Cc1noc(C)c1S(=O)(=O)Nc1ccc2c(c1)C(=O)N([C@H](C)CO)C[C@@H](C)[C@@H](CN(C)Cc1ccc(C(F)(F)F)cc1)OCCCC[C@H](C)O2 | 16.2% (inactive) | 
C[C@H](CO)N1C[C@H](C)[C@H](CN(C)Cc2ccc(C(F)(F)F)cc2)Oc2ccc(NC(=O)Cc3ccccc3)cc2CC1=O | 3.81% (inactive) | 
O=C(Cc1ccccn1)NCC[C@@H]1CC[C@H](NC(=O)Nc2ccc(Cl)cc2)[C@H](CO)O1 | -9.97% (inactive) | 
C[C@H](NC(=O)C[C@H]1C=C[C@@H](NC(=O)Cc2ccccn2)[C@@H](CO)O1)c1ccccc1 | -0.671% (inactive) | 
C[C@@H](NC(=O)C[C@@H]1C=C[C@@H](NC(=O)Cc2ccccn2)[C@H](CO)O1)c1ccccc1 | -0.374% (inactive) | 
C[C@@H](NC(=O)C[C@@H]1C=C[C@H](NC(=O)Cc2ccccn2)[C@H](CO)O1)c1ccccc1 | 1.6% (inactive) | 

SMILES | activity change, negative = inhibition (at 35 µM (top of the series)) | also measured
C[C@H](NC(=O)C[C@@H]1C=C[C@@H](NC(=O)Cc2ccccn2)[C@@H](CO)O1)c1ccccc1 | 2.64% (inactive) | 
C[C@@H]1CN([C@H](C)CO)C(=O)Cc2cc(NC(=O)Cc3ccccc3)ccc2O[C@H]1CN(C)Cc1ccc(C(F)(F)F)cc1 | -5.26% (inactive) | 
CS(=O)(=O)Nc1ccc2c(c1)[C@H]1C[C@@H](CC(=O)NCC3CC3)O[C@@H](CO)[C@H]1O2 | 5.22% (inactive) | 
Cc1noc(C)c1S(=O)(=O)Nc1ccc2c(c1)C(=O)N([C@@H](C)CO)C[C@H](C)[C@H](CN(C)Cc1ccc(C(F)(F)F)cc1)OCCCC[C@H](C)O2 | -10.2% (inactive) | 
Cc1noc(C)c1S(=O)(=O)Nc1ccc2c(c1)C(=O)N([C@@H](C)CO)C[C@@H](C)[C@@H](CN(C)Cc1ccc(C(F)(F)F)cc1)OCCCC[C@H](C)O2 | 13% (inactive) | 
CO[C@@H]1CN(C)C(=O)c2ccc(NC(C)=O)cc2OC[C@@H](C)N(Cc2ccccc2F)C[C@H]1C | 0.725% (inactive) | 
C[C@H]1CN([C@@H](C)CO)C(=O)c2c(c3ccccc3n2C)-c2ccccc2CO[C@H]1CN(C)C(=O)Nc1ccc(F)cc1 | 1.49% (inactive) | 
C[C@@H]1CN([C@@H](C)CO)C(=O)c2c(c3ccccc3n2C)-c2ccccc2CO[C@H]1CN(C)C(=O)Nc1ccc(F)cc1 | -7.17% (inactive) | 
Cc1noc(C)c1S(=O)(=O)Nc1ccc2c(c1)C(=O)N([C@H](C)CO)C[C@@H](C)[C@H](CN(C)Cc1ccc(C(F)(F)F)cc1)OCCCC[C@H](C)O2 | -0.786% (inactive) | 
CO[C@H]1CN(C)C(=O)c2ccc(NC(=O)C3CC3)cc2OC[C@H](C)N(C(=O)c2ccccn2)C[C@H]1C | -14.8% (inactive) | 
Cc1noc(C)c1S(=O)(=O)Nc1ccc2c(c1)C(=O)N([C@H](C)CO)C[C@H](C)[C@@H](CN(C)Cc1ccc(C(F)(F)F)cc1)OCCCC[C@H](C)O2 | 27.4% (inactive) | 
O=C(Cc1ccccn1)NCC[C@@H]1CC[C@@H](NC(=O)Nc2ccc(Cl)cc2)[C@H](CO)O1 | 0.177% (inactive) | 
Cc1noc(C)c1S(=O)(=O)Nc1ccc2c(c1)C(=O)N([C@H](C)CO)C[C@@H](C)[C@@H](CN(C)Cc1ccc(C(F)(F)F)cc1)OCCCC[C@@H](C)O2 | -6.08% (inactive) | 
Cc1noc(C)c1S(=O)(=O)Nc1ccc2c(c1)C(=O)N([C@H](C)CO)C[C@H](C)[C@H](CN(C)Cc1ccc(C(F)(F)F)cc1)OCCCC[C@@H](C)O2 | 16.1% (inactive) | 
Cc1noc(C)c1S(=O)(=O)Nc1ccc2c(c1)C(=O)N([C@H](C)CO)C[C@@H](C)[C@H](CN(C)Cc1ccc(C(F)(F)F)cc1)OCCCC[C@@H](C)O2 | -6% (inactive) | 
C[C@@H](NC(=O)C[C@@H]1C=C[C@@H](NC(=O)Cc2ccccn2)[C@@H](CO)O1)c1ccccc1 | -0.171% (inactive) | 
Cc1noc(C)c1S(=O)(=O)Nc1ccc2c(c1)C(=O)N([C@@H](C)CO)C[C@H](C)[C@@H](CN(C)Cc1ccc(C(F)(F)F)cc1)OCCCC[C@H](C)O2 | -1.9% (inactive) | 
CN(C)c1ccc2c(c1)[C@@H]1C[C@@H](CC(=O)NCc3ccc(Oc4ccccc4)cc3)O[C@@H](CO)[C@@H]1O2 | -26.2% (inactive) | 
Cc1noc(C)c1S(=O)(=O)Nc1ccc2c(c1)C(=O)N([C@@H](C)CO)C[C@H](C)[C@H](CN(C)Cc1ccc(C(F)(F)F)cc1)OCCCC[C@@H](C)O2 |  | activity change, negative = inhibition (at 30 µM (top of the series)): 2.6% (inactive)
O=C(Cc1ccccn1)NCC[C@H]1CC[C@@H](NC(=O)Nc2ccc(Cl)cc2)[C@H](CO)O1 | -2.95% (inactive) | 

SMILES | activity change, negative = inhibition (at 35 µM (top of the series)) | also measured
C[C@H](NC(=O)C[C@@H]1C=C[C@@H](NC(=O)Cc2ccccn2)[C@H](CO)O1)c1ccccc1 | 4.21% (inactive) | 
C[C@@H](NC(=O)C[C@H]1C=C[C@H](NC(=O)Cc2ccccn2)[C@H](CO)O1)c1ccccc1 | -2.05% (inactive) | 
O=C(C[C@H]1C[C@@H]2c3cc(NS(=O)(=O)c4ccc(F)cc4)ccc3O[C@@H]2[C@H](CO)O1)NC1CCCCC1 | -0.993% (inactive) | 
C[C@H](NC(=O)C[C@H]1C=C[C@@H](NC(=O)Cc2ccccn2)[C@H](CO)O1)c1ccccc1 | 0.463% (inactive) | 
C[C@H](NC(=O)C[C@H]1C=C[C@H](NC(=O)Cc2ccccn2)[C@@H](CO)O1)c1ccccc1 | 10.7% (inactive) | 
C[C@H](NC(=O)C[C@H]1C=C[C@H](NC(=O)Cc2ccccn2)[C@H](CO)O1)c1ccccc1 | 3.9% (inactive) | 
O=C(Cc1ccccn1)NCC[C@H]1CC[C@H](NC(=O)Nc2ccc(Cl)cc2)[C@@H](CO)O1 | 4.16% (inactive) | 
COC(=O)C[C@H]1C[C@H]2c3cc(NC(=O)CN(C)C)ccc3O[C@H]2[C@H](CO)O1 | -9.49% (inactive) | 
C[C@@H]1CN([C@H](C)CO)C(=O)c2c(c3ccccc3n2C)-c2ccccc2CO[C@H]1CN(C)C(=O)Nc1ccc(F)cc1 | -0.608% (inactive) | 
O=C(C[C@@H]1C[C@@H]2c3cc(NC(=O)c4cccnc4)ccc3O[C@@H]2[C@H](CO)O1)NCC(F)(F)F | -8.21% (inactive) | 
Cc1noc(C)c1S(=O)(=O)Nc1ccc2c(c1)C(=O)N([C@@H](C)CO)C[C@@H](C)[C@@H](CN(C)Cc1ccc(C(F)(F)F)cc1)OCCCC[C@@H](C)O2 | -7.77% (inactive) | 
C[C@@H](NC(=O)C[C@H]1C=C[C@H](NC(=O)Cc2ccccn2)[C@@H](CO)O1)c1ccccc1 | 2.05% (inactive) | 
C[C@@H](NC(=O)C[C@H]1C=C[C@@H](NC(=O)Cc2ccccn2)[C@@H](CO)O1)c1ccccc1 | -14% (inactive) | 
O=C(C[C@@H]1C[C@H]2c3cc(NS(=O)(=O)c4ccc(F)cc4)ccc3O[C@H]2[C@@H](CO)O1)NC1CCCCC1 | 2.38% (inactive) | 
COC(=O)C[C@@H]1C[C@@H]2c3cc(NC(=O)CN(C)C)ccc3O[C@@H]2[C@@H](CO)O1 | -4.49% (inactive) | 
O=C(Cc1ccccn1)NCC[C@@H]1CC[C@@H](NC(=O)Nc2ccc(Cl)cc2)[C@@H](CO)O1 | -0.581% (inactive) | 
CS(=O)(=O)Nc1ccc2c(c1)[C@@H]1C[C@H](CC(=O)NCC3CC3)O[C@H](CO)[C@@H]1O2 | -9.8% (inactive) | 
Cc1noc(C)c1S(=O)(=O)Nc1ccc2c(c1)C(=O)N([C@H](C)CO)C[C@H](C)[C@H](CN(C)Cc1ccc(C(F)(F)F)cc1)OCCCC[C@H](C)O2 |  | activity change, negative = inhibition (at 16 µM (top of the series)): -0.443% (inactive)
COc1ccccc1C(=O)Nc1ccc2c(c1)C(=O)N(C)[C@@H]1CC[C@H](CC(=O)NCCc3ccncc3)O[C@H]1CO2 | -9.84% (inactive) | 
